{"source": "patent US11339160B2", "about": "“Imidazole and triazole containing bicyclic compounds as JAK inhibitors” (THERAVANCE BIOPHARMA R&D IP, LLC, priority 2019, dated 2022)", "data": [{"molecular_target": "JAK3 (Homo sapiens (Human), UniProt P52333)", "sequence (P52333 whole entry)": "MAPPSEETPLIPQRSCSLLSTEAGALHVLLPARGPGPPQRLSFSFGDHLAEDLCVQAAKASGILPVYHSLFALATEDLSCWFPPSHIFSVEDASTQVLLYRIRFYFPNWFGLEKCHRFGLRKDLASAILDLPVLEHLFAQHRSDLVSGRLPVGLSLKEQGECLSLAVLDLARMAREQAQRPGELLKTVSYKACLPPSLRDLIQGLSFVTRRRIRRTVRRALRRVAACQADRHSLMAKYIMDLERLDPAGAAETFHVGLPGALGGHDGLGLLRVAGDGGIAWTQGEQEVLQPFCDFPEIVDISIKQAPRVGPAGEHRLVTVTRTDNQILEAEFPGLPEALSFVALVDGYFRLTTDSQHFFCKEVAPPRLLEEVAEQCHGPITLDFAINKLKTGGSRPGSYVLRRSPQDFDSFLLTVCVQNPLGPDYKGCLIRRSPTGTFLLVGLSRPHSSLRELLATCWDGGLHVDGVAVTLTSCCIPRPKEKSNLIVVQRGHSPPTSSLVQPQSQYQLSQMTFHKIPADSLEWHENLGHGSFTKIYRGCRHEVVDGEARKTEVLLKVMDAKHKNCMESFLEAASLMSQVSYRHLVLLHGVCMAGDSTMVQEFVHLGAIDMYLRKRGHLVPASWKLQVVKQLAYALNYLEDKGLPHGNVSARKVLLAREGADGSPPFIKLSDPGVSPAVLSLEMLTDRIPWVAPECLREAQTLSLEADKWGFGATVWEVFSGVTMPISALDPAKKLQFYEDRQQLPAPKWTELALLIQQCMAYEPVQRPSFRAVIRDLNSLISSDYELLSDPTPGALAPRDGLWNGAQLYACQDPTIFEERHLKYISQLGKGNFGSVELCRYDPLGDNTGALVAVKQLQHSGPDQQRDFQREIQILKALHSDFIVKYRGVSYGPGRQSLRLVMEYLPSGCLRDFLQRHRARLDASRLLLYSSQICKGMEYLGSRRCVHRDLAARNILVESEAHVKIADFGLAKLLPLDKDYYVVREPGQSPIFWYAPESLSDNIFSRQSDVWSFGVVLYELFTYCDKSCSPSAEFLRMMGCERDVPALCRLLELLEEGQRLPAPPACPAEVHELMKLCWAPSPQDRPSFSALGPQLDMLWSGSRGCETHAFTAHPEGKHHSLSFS", "assay": "Biochemical JAK3 kinase assay (LanthaScreen)", "settings": "selectivity, difference of pKi values", "experimental": "Assay 1: Biochemical JAK and Tyk2 Kinase Assays\nA panel of four LanthaScreen JAK biochemical assays (JAK1, 2, 3 and Tyk2) were carried in a common kinase reaction buffer (50 mM HEPES, pH 7.5, 0.01% Brij-35, 10 mM MgCl2, and 1 mM EGTA). Recombinant GST-tagged JAK enzymes and a GFP-tagged STAT1 peptide substrate were obtained from Life Technologies.\nSerially or discretely diluted compounds were pre-incubated with each of the four JAK enzymes and the substrate in white 384-well microplates (Corning) at ambient temperature for 1 h. ATP was subsequently added to initiate the kinase reactions in 10 μL total volume, with 1% DMSO. […] Kinase reactions were allowed to proceed for 1 hour at ambient temperature before a 10 μL preparation of EDTA (10 mM final concentration) and Tb-anti-pSTAT1 (pTyr701) antibody (Life Technologies, 2 nM final concentration) in TR-FRET dilution buffer (Life Technologies) was added. The plates were allowed to incubate at ambient temperature for 1 h before being read on the EnVision reader (Perkin Elmer). Emission ratio signals (520 nm/495 nm) were recorded and utilized to calculate the percent inhibition values based on DMSO and background controls.\nFor dose-response analysis, percent inhibition data were plotted vs. compound concentrations, and IC50 values were determined from a 4-parameter robust fit model with the Prism software (GraphPad Software). Results were expressed as pIC50 (negative logarithm of IC50) and subsequently converted to pKi (negative logarithm of dissociation constant, Ki) using the Cheng-Prusoff equation.", "values": [{"smiles": "C=CC(=O)N1CC(COc2nc(-c3ccc(O)cc3)cn3cncc23)C1", "note": "[Example 6, 1-(3-(((6-(4-hydroxyphenyl)imidazo[1,5-a]pyrazin-8-yl)oxy)methyl)azetidin-1-yl)prop-2-en-1-one]", "JAK3 (pKi)-JAK1 (pKi)": "A (a value of 3 or above)"}, {"smiles": "C=CC(=O)N1CC(COc2cc(-c3cc(F)c(O)c(F)c3)cn3cncc23)C1", "note": "[Example 32]", "JAK3 (pKi)-JAK1 (pKi)": "A (a value of 3 or above)"}, {"smiles": "C=CC(=O)N1CCC[C@H](Nc2cc(-c3ccc(O)cc3)cn3cncc23)C1", "note": "[Example 51]", "JAK3 (pKi)-JAK1 (pKi)": "B (a value of 2.3 to 3)"}, {"smiles": "C=CC(=O)N1CC2(CC(Oc3cc(-c4ccc(O)cc4)cn4cncc34)C2)C1", "note": "[Example 37]", "JAK3 (pKi)-JAK1 (pKi)": "A (a value of 3 or above)"}, {"smiles": "C=CC(=O)N1CC(COc2cc(-c3ccc(O)cc3)cn3cnnc23)C1", "note": "[Example 5, 1-(3-(((6-(4-hydroxyphenyl)-[1,2,4]triazolo[4,3-a]pyridin-8-yl)oxy)methyl)azetidin-1-yl)prop-2-en-1-one]", "JAK3 (pKi)-JAK1 (pKi)": "A (a value of 3 or above)"}, {"smiles": "C=CC(=O)N1CCC(COc2cc(-c3ccc(O)cc3)cn3cncc23)CC1", "note": "[Example 2, 1-(4-(((6-(4-hydroxyphenyl)imidazo[1,5-a]pyridin-8-yl)oxy)methyl)piperidin-1-yl)prop-2-en-1-one]", "JAK3 (pKi)-JAK1 (pKi)": "A (a value of 3 or above)"}, {"smiles": "C=CC(=O)N1CC[C@@H](Oc2cc(-c3ccc(O)cc3)cn3cncc23)[C@@H](C)C1", "note": "[Example 41]", "JAK3 (pKi)-JAK1 (pKi)": "A (a value of 3 or above)"}, {"smiles": "C=CC(=O)N1CCC(Oc2cc(-c3cc(F)c(O)cc3CC)cn3cncc23)CC1", "note": "[Example 47]", "JAK3 (pKi)-JAK1 (pKi)": "B (a value of 2.3 to 3)"}, {"smiles": "C=CC(=O)N1CCC(Oc2cc(-c3ccc(O)cc3)cn3cncc23)CC1", "note": "[Example 30]", "JAK3 (pKi)-JAK1 (pKi)": "A (a value of 3 or above)"}, {"smiles": "CCc1cc(O)ccc1-c1cc(OCC2CN(C(=O)/C=C/CN(C)C)C2)c2cncn2c1", "note": "[Example 25]", "JAK3 (pKi)-JAK1 (pKi)": "A (a value of 3 or above)"}, {"smiles": "C=CC(=O)N1CC(COc2cc(-c3ccc(O)cc3CC)cn3cncc23)C1", "note": "[Example 21]", "JAK3 (pKi)-JAK1 (pKi)": "A (a value of 3 or above)"}, {"smiles": "C=CC(=O)N1CCC[C@H](Oc2cc(-c3cc(F)c(O)cc3CC)cn3cncc23)C1", "note": "[Example 16]", "JAK3 (pKi)-JAK1 (pKi)": "B (a value of 2.3 to 3)"}, {"smiles": "CN(C)C/C=C/C(=O)N1CC(COc2cc(-c3ccc(O)cc3)cn3cncc23)C1", "note": "[Example 19]", "JAK3 (pKi)-JAK1 (pKi)": "A (a value of 3 or above)"}, {"smiles": "C=CC(=O)N1[C@@H]2CC[C@H]1C[C@@H](Oc1cc(-c3ccc(O)cc3)cn3cncc13)C2", "note": "[Example 36]", "JAK3 (pKi)-JAK1 (pKi)": "A (a value of 3 or above)"}, {"smiles": "CN(C)C/C=C/C(=O)N1CC(COc2cc(-c3ccc(O)c(F)c3)cn3cncc23)C1", "note": "[Example 22]", "JAK3 (pKi)-JAK1 (pKi)": "A (a value of 3 or above)"}, {"smiles": "C=CC(=O)N1[C@H](C)C[C@H](Oc2cc(-c3ccc(O)cc3)cn3cncc23)C[C@@H]1C", "note": "[Example 40]", "JAK3 (pKi)-JAK1 (pKi)": "B (a value of 2.3 to 3)"}, {"smiles": "C=CC(=O)N1CC[C@@H](Oc2cc(-c3ccc(O)cc3)cn3cncc23)C[C@@H]1C", "note": "[Example 39]", "JAK3 (pKi)-JAK1 (pKi)": "A (a value of 3 or above)"}, {"smiles": "C=CC(=O)N1CCC(Oc2cc(-c3cc(F)c(O)cc3CC)cn3cncc23)C(F)(F)C1", "note": "(centres unmarked) [Example 49]", "JAK3 (pKi)-JAK1 (pKi)": "C (a value of 1.8 to 2.3)"}, {"smiles": "C=CC(=O)N1CC(CSc2cc(-c3ccc(O)cc3)cn3cncc23)C1", "note": "[Example 29]", "JAK3 (pKi)-JAK1 (pKi)": "A (a value of 3 or above)"}, {"smiles": "C=CC(=O)N1CC[C@H](Oc2cc(-c3ccc(O)cc3)cn3cncc23)C1", "note": "[Example 1, (S)-1-(3-((6-(4-hydroxyphenyl)imidazo[1,5-a]pyridin-8-yl)oxy)pyrrolidin-1-yl)prop-2-en-1-one]", "JAK3 (pKi)-JAK1 (pKi)": "A (a value of 3 or above)"}, {"smiles": "C=CC(=O)N1CC(COc2cc(-c3ccc(O)cc3C(F)(F)F)cn3cncc23)C1", "note": "[Example 42]", "JAK3 (pKi)-JAK1 (pKi)": "A (a value of 3 or above)"}, {"smiles": "C=CC(=O)N1CC(COc2cc(-c3cc(C)c(O)c(C)c3)cn3cncc23)C1", "note": "[Example 35]", "JAK3 (pKi)-JAK1 (pKi)": "A (a value of 3 or above)"}, {"smiles": "C=CC(=O)N1[C@@H]2CC[C@H]1C[C@H](Nc1cc(-c3ccc(O)cc3)cn3cncc13)C2", "note": "[Example 50]", "JAK3 (pKi)-JAK1 (pKi)": "B (a value of 2.3 to 3)"}, {"smiles": "C=CC(=O)N1CC(COc2cc(-c3cc(C)c(O)cc3C)cn3cncc23)C1", "note": "[Example 43]", "JAK3 (pKi)-JAK1 (pKi)": "A (a value of 3 or above)"}, {"smiles": "CCc1cc(O)c(F)cc1-c1cc(O[C@H]2CCCN(C(=O)/C=C/CN(C)C)C2)c2cncn2c1", "note": "[Example 18]", "JAK3 (pKi)-JAK1 (pKi)": "B (a value of 2.3 to 3)"}, {"smiles": "C=CC(=O)N1CC[C@H](COc2cc(-c3ccc(O)cc3)cn3cncc23)C1", "note": "[Example 26]", "JAK3 (pKi)-JAK1 (pKi)": "A (a value of 3 or above)"}, {"smiles": "C=CC(=O)N1CC(COc2cc(-c3cc(Cl)c(O)c(Cl)c3)cn3cncc23)C1", "note": "[Example 33]", "JAK3 (pKi)-JAK1 (pKi)": "A (a value of 3 or above)"}, {"smiles": "C=CC(=O)N1CC(COc2cc(-c3ccc(O)cc3C)cn3cncc23)C1", "note": "[Example 44]", "JAK3 (pKi)-JAK1 (pKi)": "A (a value of 3 or above)"}, {"smiles": "C=CC(=O)N1CC2(CCC2Oc2cc(-c3cc(F)c(O)cc3CC)cn3cncc23)C1", "note": "(centres unmarked) [Example 46]", "JAK3 (pKi)-JAK1 (pKi)": "B (a value of 2.3 to 3)"}, {"smiles": "C=CC(=O)N1CCC(Oc2cc(-c3ccc(O)cc3)cn3cncc23)C(F)(F)C1", "note": "(centres unmarked) [Example 14, 1-(3,3-difluoro-4-((6-(4-hydroxyphenyl)imidazo[1,5-a]pyridin-8-yl)oxy)piperidin-1-yl)prop-2-en-1-one]", "JAK3 (pKi)-JAK1 (pKi)": "A (a value of 3 or above)"}, {"smiles": "C=CC(=O)N1CC(CNc2cc(-c3ccc(O)cc3)cn3cncc23)C1", "note": "[Example 52]", "JAK3 (pKi)-JAK1 (pKi)": "B (a value of 2.3 to 3)"}, {"smiles": "C=CC(=O)N1CC(COc2cc(-c3ccc(O)cc3OC)cn3cncc23)C1", "note": "[Example 45]", "JAK3 (pKi)-JAK1 (pKi)": "A (a value of 3 or above)"}, {"smiles": "C=CC(=O)N1CC2(CCC2Oc2cc(-c3ccc(O)cc3)cn3cncc23)C1", "note": "(centres unmarked) [Example 3, 1-(5-((6-(4-hydroxyphenyl)imidazo[1,5-a]pyridin-8-yl)oxy)-2-azaspiro[3.3]heptan-2-yl)prop-2-en-1-one]", "JAK3 (pKi)-JAK1 (pKi)": "A (a value of 3 or above)"}, {"smiles": "C=CC(=O)N1[C@@H]2CC[C@H]1C[C@H](Oc1cc(-c3cc(F)c(O)cc3CC)cn3cncc13)C2", "note": "[Example 48]", "JAK3 (pKi)-JAK1 (pKi)": "A (a value of 3 or above)"}, {"smiles": "C=CC(=O)N1CCC[C@H](Oc2cc(-c3ccc(O)cc3)cn3cncc23)C1", "note": "[Example 27]", "JAK3 (pKi)-JAK1 (pKi)": "A (a value of 3 or above)"}, {"smiles": "CN(C)C/C=C/C(=O)N1CC(COc2cc(-c3ccc(O)c(Cl)c3)cn3cncc23)C1", "note": "[Example 23]", "JAK3 (pKi)-JAK1 (pKi)": "A (a value of 3 or above)"}, {"smiles": "C=CC(=O)N1CCC(Nc2cc(-c3ccc(O)cc3)cn3cncc23)CC1", "note": "[Example 4, 1-(4-((6-(4-hydroxyphenyl)imidazo[1,5-a]pyridin-8-yl)amino)piperidin-1-yl)prop-2-en-1-one]", "JAK3 (pKi)-JAK1 (pKi)": "B (a value of 2.3 to 3)"}, {"smiles": "C=CC(=O)N1CC[C@H](Oc2cc(-c3ccc(O)cc3)cn3cncc23)C[C@@H]1C", "note": "[Example 38]", "JAK3 (pKi)-JAK1 (pKi)": "A (a value of 3 or above)"}]}]}
